Assay results reported in BigSolDB 2.1.

O=c1cc(-c2ccc(O)c(O)c2)oc2cc(O)cc(O)c12
solubility (mole fraction)
Settings | 273.2 K | 283.2 K | 293.2 K | 303.2 K | 313.2 K | 323.2 K
in ethanol | 0.000755 | 0.00117 | 0.00174 | 0.00205 | 0.00271 | 0.00318
in water | 2.06e-07 | 2.72e-07 | 3.49e-07 | 4.68e-07 | 7.3e-07 | 9.48e-07
